Common to all, as to format: cell-based
The test system of assay [1] is HuH-1 cells. Description: In vitro inhibition of HuH-1, MTT assay. The following applies: read-out: HuH-1: relative IC50. On the procedure: HuH-1 cells were purchased from JCRB and tested with the following method:
Cells are suspended at a specific density in a specific culture medium (see table in 2.Cell lines).
Then, 100 μl of cell suspension are plated per well in 96-well plates.
Compounds or negative controls (DMSO) are added to the cells (100 μl of a compound solution in its specific medium with a final concentration of 0.15% DMSO).
Each compound concentration is tested in duplicate (6 concentrations per compound).
Cells are incubated at 37° C. for 72 h without treating again.
SDS is added to control wells (final concentration of 1%) and kept for 15 min at 37° C. SDS 1% represents the positive control of proliferation inhibition.
Cell supernatant is removed and 100 μl of a MTT (3-[4.5-dimethylthiazol-2-yl]-2.5-diphenyltetrazolium bromide) solution in fresh medium are added per well (MTT final concentration of 0.5 mg/ml) and incubated for 4 h at 37° C.
MTT reaction is stopped and homogenized by adding 100 μl/well of SDS 10%, 0.01M HCl and incubated for 2 h at 37° C.
Absorbance is measured at 570 nm.

Assay [2] has as its system A498. The assay can be described thus: In vitro inhibition, CellTiter-Glo (CTG) assay. The settings on record: 72 hr exposure. On the procedure: (§1) Cells were grown in RPMI-1640 supplemented with L-Glutamine and 10% FBS of the following cell lines:
(§2) CCRF-CEM; HL-60; KG-1; CFPAC-1; MiaPACA-2; BxPC-3; HepG2; MDA-MB-231; HCT-116; A498; and NCI-H69
(§3) 18, 96 well plates of each cell line were seeded with the optimized number of cells per well in a total volume of 50 μper well. The plates were left overnight. Plate wells were seeded with 100 pt media for media control. The following day, cells were exposed to test compounds as described below. At the same time as drug exposure, a CTG assay was conducted on the 18th plate for the 0 hr count.
(§4) The compounds were added to cells and medium already on the plate to give desired final concentrations. 50 μL media were added to cell control wells, and 50 μL of mix added to vehicle control wells. 10 μM Doxorubicin was added to appropriate wells as control. Cells exposed to test compound were incubated at 37° C. for 72 hr followed by a CTG assay.
(§5) At the end of the 72 hr exposure period, plates were removed for a CellTiter-Glo (CTG) assay from a 37° C., 5% CO2 incubator and placed on the bench at room temperature for 30 mins. 100 μL of CellTiter-Glo reagent was added and mixed for 2 mins, followed by a further 10 min incubation at room temperature. Luminescence was recorded using Synergy 4.0.

Assay [3] deals with BxPC-3. The assay can be described thus: In vitro inhibition, CellTiter-Glo (CTG) assay. The settings on record: 72 hr exposure. The protocol:
as §1, §2, §3, §4, §5
Background: In ATP-based viability assays light output follows the ATP content of the culture.

The test system of assay [4] is CCRF-CEM. The assay can be described thus: In vitro inhibition, CellTiter-Glo (CTG) assay. The settings on record: 72 hr exposure. The protocol:
as §1, §2, §3, §4, §5

In assay [5] the test system is CFPAC-1. Description: In vitro inhibition, CellTiter-Glo (CTG) assay. The settings on record: 72 hr exposure. On the procedure:
as §1, §2, §3, §4, §5

The test system of assay [6] is HCT-116. Description: In vitro inhibition, CellTiter-Glo (CTG) assay. The following applies: 72 hr exposure. On the procedure: as §1, §2, §3, §4, §5
The subject of assay [7] is HL-60. The assay can be described thus: In vitro inhibition, CellTiter-Glo (CTG) assay. The following applies: 72 hr exposure. The protocol:
as §1, §2, §3, §4, §5

Assay [8] has as its system HepG2. Description: In vitro inhibition, CellTiter-Glo (CTG) assay. The following applies: 72 hr exposure. On the procedure:
as §1, §2, §3, §4, §5

Assay [9] relates to KG-1. Description: In vitro inhibition, CellTiter-Glo (CTG) assay. The settings on record: 72 hr exposure. The protocol: as §1, §2, §3, §4, §5
Assay [10] concerns MDA-MB-231. Description: In vitro inhibition, CellTiter-Glo (CTG) assay. On the procedure:
as §1, §2, §3, §4, §5

Assay [11] has as its system MiaPACA-2. The assay can be described thus: In vitro inhibition, CellTiter-Glo (CTG) assay. The following applies: 72 hr exposure. On the procedure:
as §1, §2, §3, §4, §5

Assay [12] relates to NCI-H69. Description: In vitro inhibition, CellTiter-Glo (CTG) assay. The following applies: 72 hr exposure. On the procedure: as §1, §2, §3, §4, §5
Where [13] appears, read: Homo sapiens, MDA-MB-231, 72 hr exposure.

Each structure is given as a SMILES string. Where two headings read alike, the source gives them in different places. Where only a bound is given, the exact number is not on record here.

Regarding `CC(C)OC(=O)[C@H](C)CCO[P@]1(=O)OC[C@H]2O[C@@H](n3ccc(N)nc3=O)C(F)(F)[C@@H]2O1` (single isomer, unassigned) [Compound 120 Diastereoisomer 1], in assay [1] (Homo sapiens, HuH-1, 72 h), the IC50 is below 0.3 µM.

Regarding `CC(C)OC(=O)[C@@H](C)CCO[P@@]1(=O)OC[C@H]2O[C@@H](n3ccc(N)nc3=O)C(F)(F)[C@@H]2O1` (single isomer, unassigned) [Compound 121 Diastereoisomer 2], the IC50 in assay [1] (Homo sapiens, HuH-1, 72 h) is below 0.3 µM.

`CC(C)OC(=O)[C@H](C)NP1(=O)OC[C@H]2O[C@@H](n3ccc(N)nc3=O)C(F)(F)[C@@H]2O1` (single isomer, unassigned) [103 (diastereomer 2)]: the IC50 in assay [2] was 10 to 100 µM; in assay [3], 1 to 10 µM; in [4] it was below 1 µM; in assay [5], 1 to 10 µM; in assay [6] it was 1 to 10 µM; in assay [7] it was below 1 µM. In addition, the IC50 was below 1 µM in assay [8]; below 1 µM in assay [9]; 10 to 100 µM in assay [10] (72 hr exposure); 1 to 10 µM in assay [11]; 10 to 100 µM in [12].

Regarding `CCOC(=O)[C@H](C)CCO[P@@]1(=O)OC[C@H]2O[C@@H](n3ccc(N)nc3=O)C(F)(F)[C@@H]2O1` (single isomer, unassigned; diastereoisomer 1) [Compound 123 Diastereoisomer 1], in assay [1] (72 h), the IC50 was below 0.3 µM.

For `CCOC(=O)[C@@H](C)CCO[P@@]1(=O)OC[C@H]2O[C@@H](n3ccc(N)nc3=O)C(F)(F)[C@@H]2O1` (single isomer, unassigned) [Compound 122 Diastereoisomer 1], in assay [1] (Homo sapiens, HuH-1, 72 h), the IC50 was below 0.3 µM.

As to `Cn1c(COP(=O)(NCc2ccccc2)OC[C@H]2O[C@@H](n3ccc(N)nc3=O)C(F)(F)[C@@H]2O)cnc1[N+](=O)[O-]` (single isomer, unassigned) [112 (diastereomer 2)], the half-inhibitory concentration (IC50) in assay [2] is 10 to 100 µM; in assay [3] it was 10 to 100 µM; in [4], below 1 µM; in [5] it was 1 to 10 µM; in assay [6], 10 to 100 µM; in [7], below 1 µM. Also, the IC50 lay within 1 to 10 µM in [8]; 1 to 10 µM in [9]; 10 to 100 µM in assay [10] (72 hr exposure); 10 to 100 µM in assay [11]; 10 to 100 µM in assay [12].

In the case of `CC(C)OC(=O)[C@H](C)CCO[P@@]1(=O)OC[C@H]2O[C@@H](n3ccc(N)nc3=O)C(F)(F)[C@@H]2O1` (single isomer, unassigned; diastereoisomer 2) [Compound 120 Diastereoisomer 2], the IC50 in [1] (72 h) is below 0.3 µM.

For `CCOC(=O)[C@@H](C)CCO[P@]1(=O)OC[C@H]2O[C@@H](n3ccc(N)nc3=O)C(F)(F)[C@@H]2O1` (single isomer, unassigned) [Compound 122 Diastereoisomer 2], the IC50 in assay [1] (Homo sapiens, HuH-1, 72 h) is below 0.3 µM.

As to `CC(C)OC(=O)[C@@H](C)CCO[P@]1(=O)OC[C@H]2O[C@@H](n3ccc(N)nc3=O)C(F)(F)[C@@H]2O1` (single isomer, unassigned) [Compound 121 Diastereoisomer 1], the IC50 in assay [1] (Homo sapiens, HuH-1, 72 h) is below 0.3 µM.

As for `Nc1ccn([C@@H]2O[C@H](CO)[C@@H](O)C2(F)F)c(=O)n1` [Gemcitabine, reference compound], in assay [1] (Homo sapiens, HuH-1, 72 h), the IC50 was below 0.3 µM.

For `Nc1ccn([C@@H]2O[C@@H]3COP(=O)(O)O[C@H]3C2(F)F)c(=O)n1` [Compound 107, 1-[(4aR,6R,7aR)-7,7-difluoro-2-hydroxy-2-oxo-4,4a,6,7a-tetrahydrofuro[3,2-d][1,3,2]dioxaphosphinin-6-yl]-4-amino-pyrimidin-2-one], the concentration for half-maximal inhibition (IC50) in assay [2] (Homo sapiens, A498, 72 h) is 10 to 100 µM; in [3] (Homo sapiens, BXPC-3, 72 h) it was below 1 µM; in assay [5] (Homo sapiens, CFPAC-1, 72 h), below 1 µM; in assay [6] (Homo sapiens, HCT-116, 72 h), 1 to 10 µM; in [8] (Homo sapiens, HepG2, 72 h) it was below 1 µM; in [10] (setting [13]), 10 to 100 µM. The IC50 is below 1 µM in assay [11] (Homo sapiens, MIA PaCa-2, 72 h) and 1 to 10 µM in assay [12] (Homo sapiens, NCI-H69, 72 h).

Consider `CCOC(=O)[C@H](C)CCO[P@]1(=O)OC[C@H]2O[C@@H](n3ccc(N)nc3=O)C(F)(F)[C@@H]2O1` (single isomer, unassigned) [Compound 123 Diastereoisomer 2], for which, in assay [1] (Homo sapiens, HuH-1, 72 h), the IC50 is below 0.3 µM.

For the compound `CC(C)OP1(=O)OC[C@H]2O[C@@H](n3ccc(N)nc3=O)C(F)(F)[C@@H]2O1` (single isomer, unassigned) [102 (diastereomer 2)], the IC50 in assay [2] (Homo sapiens, A498, 72 h) was 10 to 100 µM; in assay [3] it was 1 to 10 µM; in assay [5], 1 to 10 µM; in [6], 1 to 10 µM; in [8], below 1 µM; in [9] (Homo sapiens, KG-1, 72 h) it was below 1 µM. In addition, the half-maximal inhibitory concentration (IC50) lay within 10 to 100 µM in assay [10] (setting [13]); 1 to 10 µM in assay [11]; 10 to 100 µM in assay [12] (Homo sapiens, NCI-H69, 72 h).

In the case of `CC(C)(CO)C(=O)SCCOP(=O)(O)OC[C@H]1O[C@@H](n2ccc(N)nc2=O)C(F)(F)[C@@H]1O` [Compound 118], the IC50 in assay [2] (Homo sapiens, A498, 72 h) was below 1 µM; in assay [3] (Homo sapiens, BXPC-3, 72 h) it was below 1 µM; in assay [5] (Homo sapiens, CFPAC-1, 72 h) it was below 1 µM; in assay [6] (Homo sapiens, HCT-116, 72 h) it was below 1 µM; in assay [8] (Homo sapiens, HepG2, 72 h), below 1 µM; in assay [10] (setting [13]), 1 to 10 µM. Moreover, the IC50 in assay [11] (Homo sapiens, MIA PaCa-2, 72 h) was below 1 µM; in [12] (Homo sapiens, NCI-H69, 72 h) it was below 1 µM.

With `COC(=O)[C@H](CCCCNP1(=O)OC[C@H]2O[C@@H](n3ccc(N)nc3=O)C(F)(F)[C@@H]2O1)NC(=O)OC(C)(C)C` (single isomer, unassigned) [106 (diastereomer 2)], the 50% inhibitory concentration (IC50) is 10 to 100 µM in assay [2]; 1 to 10 µM in [3]; 1 to 10 µM in [5]; 1 to 10 µM in [6]; below 1 µM in [8]; 10 to 100 µM in assay [10] (72 hr exposure). Further, the IC50 was 1 to 10 µM in [11] and 10 to 100 µM in [12].

In the case of `CC(C)(C)C(=O)SCCOP1(=O)OC[C@H]2O[C@@H](n3ccc(N)nc3=O)C(F)(F)[C@@H]2O1` (single isomer, unassigned) [104 (diastereomer 2)], the IC50 was below 1 µM in assay [2]; below 1 µM in [3]; below 1 µM in [5]; 1 to 10 µM in [6]; below 1 µM in [8]; 1 to 10 µM in assay [10] (72 hr exposure). Moreover, the IC50 in assay [11] was below 1 µM; in assay [12] it was 1 to 10 µM.

Take `CC(C)OP1(=O)OC[C@H]2O[C@@H](n3ccc(N)nc3=O)C(F)(F)[C@@H]2O1` (single isomer, unassigned) [Compound 102 (diastereomer 1)]: the IC50 is 10 to 100 µM in assay [2]; 10 to 100 µM in assay [3]; 1 to 10 µM in assay [5] (Homo sapiens, CFPAC-1, 72 h); 10 to 100 µM in assay [6]; 1 to 10 µM in assay [8] (Homo sapiens, HepG2, 72 h); 10 to 100 µM in assay [10] (72 hr exposure). Moreover, the IC50 in assay [11] (Homo sapiens, MIA PaCa-2, 72 h) was 1 to 10 µM; in [12], 10 to 100 µM; in assay [1] (Homo sapiens, HuH-1, 72 h), at least 0.3 µM.

As to `CC(C)C(=O)OC[C@@H](C)NP1(=O)OC[C@H]2O[C@@H](n3ccc(N)nc3=O)C(F)(F)[C@@H]2O1` (single isomer, unassigned) [105 (diastereomer 2)], the IC50 in assay [2] is 1 to 10 µM; in assay [3], 1 to 10 µM; in assay [5], 1 to 10 µM; in assay [6], 10 to 100 µM; in [8], below 1 µM; in assay [10] (72 hr exposure), 10 to 100 µM. In addition, the IC50 in assay [11] lay in the range of 1 to 10 µM; in assay [12], 10 to 100 µM.

What is called IC50 is the concentration needed to halve the response being measured.
